Tests used:
[1] = target: Nuclear body protein SP140-like protein (Homo sapiens) (UniProt Q9H930); experiment: Selectivity interaction (Human bromodomain panel (DSF assay)) EUB0000233b SP140L
[2] = target: Mitogen-activated protein kinase 10 (Homo sapiens, UniProt P53779); experiment: Selectivity interaction (KinomeScan (DiscoverX)) EUB0000666a MAPK10; conditions: at 10 µM
[3] = target: T1, Membrane-associated tyrosine- and threonine-specific cdc2-inhibitory kinase (Homo sapiens) (UniProt Q99640); experiment: Selectivity interaction (KinomeScan (DiscoverX)) EUB0000666a PKMYT1; conditions: at 10 µM
T1 sequence (whole entry): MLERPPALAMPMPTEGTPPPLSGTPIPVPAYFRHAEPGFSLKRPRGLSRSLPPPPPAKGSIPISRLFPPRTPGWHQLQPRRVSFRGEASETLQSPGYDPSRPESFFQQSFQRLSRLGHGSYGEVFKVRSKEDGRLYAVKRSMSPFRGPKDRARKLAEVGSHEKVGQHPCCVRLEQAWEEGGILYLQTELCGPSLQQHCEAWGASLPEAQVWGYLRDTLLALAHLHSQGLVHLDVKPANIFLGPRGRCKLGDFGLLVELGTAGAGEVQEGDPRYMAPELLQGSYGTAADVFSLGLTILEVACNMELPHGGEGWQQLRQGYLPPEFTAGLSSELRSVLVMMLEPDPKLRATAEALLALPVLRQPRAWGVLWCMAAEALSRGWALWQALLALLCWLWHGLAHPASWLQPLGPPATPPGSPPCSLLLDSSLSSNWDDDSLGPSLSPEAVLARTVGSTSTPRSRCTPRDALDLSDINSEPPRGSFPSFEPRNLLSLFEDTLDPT

[4] = target: Serine/threonine-protein kinase PLK2 (Homo sapiens, UniProt Q9NYY3); conditions: at 10 µM
Serine/threonine-protein kinase PLK2, sequence (Q9NYY3 whole entry, looked up): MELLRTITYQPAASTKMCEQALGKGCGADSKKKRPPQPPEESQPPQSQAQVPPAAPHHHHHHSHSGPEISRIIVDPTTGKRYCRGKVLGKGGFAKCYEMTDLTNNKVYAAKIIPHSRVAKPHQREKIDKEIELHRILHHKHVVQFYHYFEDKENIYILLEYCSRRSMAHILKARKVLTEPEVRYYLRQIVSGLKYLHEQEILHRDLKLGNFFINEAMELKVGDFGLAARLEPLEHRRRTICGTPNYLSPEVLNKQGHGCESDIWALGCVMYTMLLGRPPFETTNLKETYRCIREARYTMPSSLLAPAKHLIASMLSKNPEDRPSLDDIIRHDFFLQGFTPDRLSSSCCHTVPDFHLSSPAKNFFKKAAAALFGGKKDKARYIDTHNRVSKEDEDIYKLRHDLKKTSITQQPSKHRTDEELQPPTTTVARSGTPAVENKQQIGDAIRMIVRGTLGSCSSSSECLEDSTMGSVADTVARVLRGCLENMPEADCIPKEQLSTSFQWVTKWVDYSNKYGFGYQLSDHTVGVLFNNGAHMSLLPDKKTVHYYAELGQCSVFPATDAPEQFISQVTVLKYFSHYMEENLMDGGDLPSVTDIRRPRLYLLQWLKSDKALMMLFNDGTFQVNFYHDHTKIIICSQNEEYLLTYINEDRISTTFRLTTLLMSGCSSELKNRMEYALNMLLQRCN

[5] = target: T2, Mitogen-activated protein kinase kinase kinase 5 (Homo sapiens) (UniProt Q99683); experiment: Selectivity interaction (ActivX KiNativ screen (kinase selectivity in THP-1 cell lysates)) EUB0000639a MAP3K5; format: subcellular; conditions: lysate, at 0.2 µM
T2 sequence (whole entry): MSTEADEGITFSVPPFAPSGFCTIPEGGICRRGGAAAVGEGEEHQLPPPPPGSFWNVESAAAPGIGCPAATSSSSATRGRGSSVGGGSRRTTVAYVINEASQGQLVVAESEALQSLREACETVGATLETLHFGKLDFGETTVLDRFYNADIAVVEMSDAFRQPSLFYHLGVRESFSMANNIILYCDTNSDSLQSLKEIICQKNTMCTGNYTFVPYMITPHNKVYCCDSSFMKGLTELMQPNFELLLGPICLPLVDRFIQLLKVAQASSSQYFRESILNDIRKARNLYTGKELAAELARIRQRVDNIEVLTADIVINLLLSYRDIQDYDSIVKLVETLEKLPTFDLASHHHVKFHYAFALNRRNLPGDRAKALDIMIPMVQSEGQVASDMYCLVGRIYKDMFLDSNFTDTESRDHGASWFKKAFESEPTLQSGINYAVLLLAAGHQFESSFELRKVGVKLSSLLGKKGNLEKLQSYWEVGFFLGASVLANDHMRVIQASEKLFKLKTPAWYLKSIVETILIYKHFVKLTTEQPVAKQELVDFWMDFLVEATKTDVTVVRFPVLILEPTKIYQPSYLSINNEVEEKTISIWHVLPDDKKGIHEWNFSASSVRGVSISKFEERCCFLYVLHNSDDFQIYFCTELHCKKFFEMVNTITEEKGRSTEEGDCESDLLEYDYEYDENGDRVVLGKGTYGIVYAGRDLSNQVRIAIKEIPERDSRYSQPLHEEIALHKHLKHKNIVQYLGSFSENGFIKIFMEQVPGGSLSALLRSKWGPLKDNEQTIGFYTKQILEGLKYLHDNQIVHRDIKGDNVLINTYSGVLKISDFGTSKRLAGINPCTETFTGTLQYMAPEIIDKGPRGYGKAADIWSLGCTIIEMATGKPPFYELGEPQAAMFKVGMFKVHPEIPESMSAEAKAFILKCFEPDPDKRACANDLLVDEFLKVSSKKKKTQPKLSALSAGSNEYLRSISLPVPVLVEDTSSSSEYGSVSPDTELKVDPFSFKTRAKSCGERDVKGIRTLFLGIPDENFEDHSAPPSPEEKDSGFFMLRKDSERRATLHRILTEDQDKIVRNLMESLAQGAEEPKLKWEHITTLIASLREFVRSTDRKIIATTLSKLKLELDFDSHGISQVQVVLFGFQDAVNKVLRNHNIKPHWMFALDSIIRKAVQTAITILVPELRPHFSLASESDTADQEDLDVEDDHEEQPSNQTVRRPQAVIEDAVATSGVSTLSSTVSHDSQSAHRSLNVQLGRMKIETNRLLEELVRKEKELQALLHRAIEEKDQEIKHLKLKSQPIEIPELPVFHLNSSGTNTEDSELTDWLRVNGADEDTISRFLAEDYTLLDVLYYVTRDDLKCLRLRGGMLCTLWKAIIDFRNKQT

[6] = target: Serine/threonine-protein kinase 24 (Homo sapiens) (UniProt Q9Y6E0); experiment: Selectivity interaction (KinomeScan (DiscoverX)) EUB0000695a STK24; conditions: at 100 nM
Serine/threonine-protein kinase 24 (Homo sapiens), sequence (Q9Y6E0 whole entry, looked up): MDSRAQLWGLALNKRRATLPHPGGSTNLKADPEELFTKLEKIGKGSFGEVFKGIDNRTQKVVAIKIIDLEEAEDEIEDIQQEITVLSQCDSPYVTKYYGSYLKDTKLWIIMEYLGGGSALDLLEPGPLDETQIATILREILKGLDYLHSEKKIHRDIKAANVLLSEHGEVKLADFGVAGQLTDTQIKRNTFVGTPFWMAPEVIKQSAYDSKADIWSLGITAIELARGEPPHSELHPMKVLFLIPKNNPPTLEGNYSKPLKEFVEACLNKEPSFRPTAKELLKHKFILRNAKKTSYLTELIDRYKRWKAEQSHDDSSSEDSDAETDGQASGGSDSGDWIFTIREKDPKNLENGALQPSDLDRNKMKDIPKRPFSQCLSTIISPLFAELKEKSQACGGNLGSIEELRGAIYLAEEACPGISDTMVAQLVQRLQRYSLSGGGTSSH

[7] = target: T3, Dual specificity mitogen-activated protein kinase kinase 3 (Homo sapiens) (UniProt P46734); experiment: Selectivity interaction (Ambit KINOMEscan and KiNATiv profiling in Jurkat cells) EUB0000090b MAP2K3; format: cell-based; conditions: at 1 µM
T3 sequence (whole entry): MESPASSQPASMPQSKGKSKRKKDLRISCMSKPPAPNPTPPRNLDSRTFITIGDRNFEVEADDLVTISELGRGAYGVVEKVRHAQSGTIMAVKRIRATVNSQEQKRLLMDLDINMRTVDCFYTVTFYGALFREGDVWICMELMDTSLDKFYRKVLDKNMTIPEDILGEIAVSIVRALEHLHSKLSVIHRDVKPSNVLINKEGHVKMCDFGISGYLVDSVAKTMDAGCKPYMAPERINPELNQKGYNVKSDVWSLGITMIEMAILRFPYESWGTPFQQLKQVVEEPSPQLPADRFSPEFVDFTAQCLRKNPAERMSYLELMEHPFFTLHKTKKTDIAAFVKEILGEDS

Mitogen-activated protein kinase 10, sequence (P53779 whole entry): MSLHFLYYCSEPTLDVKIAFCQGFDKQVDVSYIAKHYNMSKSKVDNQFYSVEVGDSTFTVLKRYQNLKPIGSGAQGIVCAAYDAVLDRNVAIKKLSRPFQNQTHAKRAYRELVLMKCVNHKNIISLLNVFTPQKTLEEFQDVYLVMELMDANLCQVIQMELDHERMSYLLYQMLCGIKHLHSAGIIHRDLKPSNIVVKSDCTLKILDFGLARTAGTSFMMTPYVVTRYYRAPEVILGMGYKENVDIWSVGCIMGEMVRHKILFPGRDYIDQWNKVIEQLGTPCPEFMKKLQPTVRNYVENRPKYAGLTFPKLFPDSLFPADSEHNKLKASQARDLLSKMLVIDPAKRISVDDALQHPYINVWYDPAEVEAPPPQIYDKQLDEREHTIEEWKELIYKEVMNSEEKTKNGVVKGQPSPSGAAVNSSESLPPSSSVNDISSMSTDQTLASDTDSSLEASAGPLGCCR
Nuclear body protein SP140-like protein (Homo sapiens), sequence (Q9H930 whole entry): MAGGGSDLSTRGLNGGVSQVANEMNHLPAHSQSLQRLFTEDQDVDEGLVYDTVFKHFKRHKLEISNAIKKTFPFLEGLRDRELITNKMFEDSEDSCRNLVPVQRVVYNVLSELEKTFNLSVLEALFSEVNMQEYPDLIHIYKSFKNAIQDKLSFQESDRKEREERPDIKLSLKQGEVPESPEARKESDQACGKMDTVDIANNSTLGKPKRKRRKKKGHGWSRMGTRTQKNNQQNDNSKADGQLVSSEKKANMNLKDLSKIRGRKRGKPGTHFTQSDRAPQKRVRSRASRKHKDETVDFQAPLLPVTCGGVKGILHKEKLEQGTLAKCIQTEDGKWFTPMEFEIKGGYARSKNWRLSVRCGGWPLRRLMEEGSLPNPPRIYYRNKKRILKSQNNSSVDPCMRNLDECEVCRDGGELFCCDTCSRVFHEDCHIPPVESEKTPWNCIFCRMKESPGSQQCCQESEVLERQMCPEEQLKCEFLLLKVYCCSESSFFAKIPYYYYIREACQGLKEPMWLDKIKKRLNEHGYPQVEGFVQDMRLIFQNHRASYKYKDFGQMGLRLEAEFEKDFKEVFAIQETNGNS

CN(C)CCCOc1ccc(-c2cc(NCCCn3cccn3)nc(S(C)(=O)=O)n2)cc1
dTM [1]: < 2 K

O=C(NOC[C@H](O)CO)c1ccc(F)c(F)c1Nc1ccc(I)cc1F
% of control [2]: 90% | % of control [3]: 80%

Cc1cc([C@@H](C)Nc2ccccc2C(=O)O)c2nc(N3CCOCC3)cc(=O)n2c1 [AZD-6482]
% of control [4]: 99%

CC[C@@H]1[C@H](F)C(=O)N[C@@H]1COc1nccc2cc(C(N)=O)c(OC)cc12 [ZIMLOVISERTIB]
% of inhibition [5]: -11.2%

Cc1cc(F)c(C(=O)Nc2cccc(-c3nncn3C(C)C)n2)cc1-n1cnc(C2CC2)c1
% of control [6]: 100%

CN(C)C/C=C/C(=O)Nc1ccc(C(=O)N2CCCC(Nc3ncc(Cl)c(-c4c[nH]c5ccccc45)n3)C2)cc1 (configuration not stated)
% of control [7]: 51%
